Structures can show the parent of a compound that is named as a salt.
Test: MIC of test compounds against various organisms
Assay type: cell-based
Conditions: not given
In the case of COc1ccc2nccc(NC(=O)[C@H]3CC[C@H](NCc4ccc5c(c4)NC(=O)CS5)CC3)c2c1 [Example 28, Trans 4-[(3-Oxo-3,4-dihydro-2-H-benzo[1,4]thiazin-6-ylmethyl)-amino]-cyclohexanecarboxylic acid (6-methoxy-quinolin-4-yl)-amide], the MIC is reported as ≤ 4 µg/mL. For COc1ccc2nccc(NC(=O)C3=CCC(N(CC(=O)O)Cc4ccc5c(c4)NC(=O)CS5)CC3)c2n1 (racemic) [Example 156, (R/S)-4-[Carboxymethyl-(3-oxo-3,4-dihydro-2H-benzo[1,4]thiazin-6-ylmethyl)-amino]-cyclohex-1-enecarboxylic Acid (6-methoxy-[1,5]naphthyridin-4-yl)-amide Bis(trifluoroacetate) Salt], the MIC was ≤ 16 µg/mL.

Same assay, conditions: versus all these organisms (panel of 10 strains); read-out: MIC
With COc1ccc2nccc(NC(=O)C3=CCC(NCc4cc5c(cc4F)OCC(=O)N5)CC3)c2n1 (racemic) [Example 154, (R/S)-4-[(7-Fluoro-3-oxo-3,4-dihydro-2H-benzo[1,4]oxazin-6-ylmethyl)-amino]-cyclohex-1-ene carboxylic acid (6-methoxy-[1,5]naphthyridin-4-yl)-amide oxalate] the MIC was ≤ 4 µg/mL. For COc1cc(F)c2nccc(NC(=O)[C@H]3CC[C@H](NCc4ccc5c(c4)NC(=O)CS5)CC3)c2c1 [Example 30, Trans-4-[(3-Oxo-3,4-dihydro-2-H-benzo[1,4]thiazin-6-ylmethyl)amino]-cyclohexanecarboxylic acid (8-fluoro-6-methoxy-quinolin-4-yl)-amide oxalate], the MIC was ≤ 4 µg/mL. With COc1ccc2nccc(NC(=O)[C@]3(O)CC[C@@H](NCc4ccc5c(n4)NC(=O)CS5)CC3)c2c1 [Example 391, 1-Hydroxy-t-4-[(3-oxo-3,4-dihydro-2H-pyrido[3,2-b][1,4]thiazin-6-ylmethyl)-amino-r-cyclohexanecarboxylic acid (6-methoxy-quinolin-4-yl)-amidedihydrochloride] the MIC was ≤ 4 µg/mL. With COc1ccc2nccc(NC(=O)[C@H]3CC[C@H](NCc4ccc5c(c4)OCCO5)CC3)c2c1 [Example 11, Trans-4-[(2,3-Dihydro-benzo[1,4]dioxin-6-ylmethyl)-amino]-cyclohexanecarboxylic acid (6-methoxy-quinolin-4-yl)-amide fumarate salt] the MIC was ≤ 16 µg/mL. For COc1ccc2nccc(NC(=O)[C@H]3CC[C@H](NCc4cc5c(c([N+](=O)[O-])c4)OCC(=O)N5)CC3)c2n1 [Example 35, Trans-4-[(8-Nitro-3-oxo-3,4-dihydro-2H-benzo[1,4]oxazin-6-ylmethyl)-amino]-cyclohexanecarboxylic Acid (6-methoxy)-[1,5]naphthyridin-4-yl)-amide Oxalate], the MIC was ≤ 4 µg/mL. For COc1ccc2nccc(NC(=O)[C@H]3CC[C@H](NCc4cnc5snnc5c4)CC3)c2n1 [Example 32, Trans-4-[([1,2,3]Thiadiazolo[5,4-b]pyridin-6-ylmethyl)-amino]-cyclohexanecarboxylic acid (6-methoxy-[1,5]naphthyridin-4-yl)-amide oxalate], the MIC was ≤ 4 µg/mL. With COc1ccc2nccc(C(=O)C[C@H]3CC[C@H](NCc4ccc5c(c4)OCCO5)CC3)c2c1 [Example 27, Trans-2-{4-[(2,3-Dihydro-benzo[1,4]dioxin-6-ylmethyl)-amino]-cyclohexyl}-1-(6-methoxy-quinolin-4-yl)-ethanone oxalate salt] the MIC was ≤ 64 µg/mL. With COc1ccc2nccc(NC(=O)[C@H]3CC[C@H](NCc4cc(=O)n5ccccc5n4)CC3)c2n1 [Example 26, Trans-4-[(4-Oxo-4 H pyrido[1,2-a]pyrimidin-2-ylmethyl)-amino]-cyclohexanecarboxylic acid (6-methoxy-[1,5]naphthyridin-4-yl)-amide oxalate salt] the MIC was ≤ 16 µg/mL. For COc1ccc2nccc(NC(=O)[C@]3(O)CC[C@@H](NCc4ccc5c(n4)NC(=O)CO5)CC3)c2n1 [Example 305, 1-Hydroxy-t-4-[(3-oxo-3,4-dihydro-2H-pyrido[3,2-b][1,4]oxazin-6-ylmethyl)-amino]-r-cyclohexanecarboxylic Acid (6-methoxy-[1,5]naphthyridin-4-yl)-amide Dihydrochloride], the MIC was ≤ 4 µg/mL. For COc1ccc2nccc(NC(=O)[C@H]3CC[C@H](NCc4ccc5c(c4)NC(=O)CO5)CC3)c2n1 [Example 8, Trans-4-[(3-Oxo-3,4-dihydro-2H-benzo[1,4]oxazin-6-ylmethyl)-amino]-cyclohexanecarboxylic acid (6-methoxy-[1,5]naphthyridin-4-yl)-amide fumarate salt], the MIC was ≤ 4 µg/mL. With COc1cc(F)c2nccc(NC(=O)[C@H]3CC[C@H](NCc4ccc5c(c4)OCCO5)CC3)c2c1 [Example 10, Trans-4-[(2,3-Dihydro-benzo[1,4]dioxin-6-ylmethyl)-amino]-cyclohexanecarboxylic acid (8-fluoro-6-methoxy-quinolin-4-yl)-amide Fumarate Salt] the MIC was ≤ 16 µg/mL. In the case of COc1ccc2nccc(NC(=O)[C@]3(O)CC[C@@H](NCc4cc5c(cn4)SCC(=O)N5)CC3)c2n1 [Example 302, 1-Hydroxy-t-4-[(2-oxo-2,3-dihydro-1H-pyrido[3,4-b][1,4]thiazin-7-ylmethyl)-amino]-r-cyclohexanecarboxylic Acid (6-methoxy-[1,5]naphthyridin-4-yl)-amide Dihydrochloride], the MIC is reported as ≤ 4 µg/mL. With COc1ccc2nccc(NC(=O)[C@H]3CC[C@H](NCc4cc5c(cc4F)OCC(=O)N5)CC3)c2n1 [Example 9] the MIC was ≤ 4 µg/mL. With COc1ccc2nccc(C(O)C[C@H]3CC[C@H](NCc4ccc5c(c4)OCCO5)CC3)c2c1 (stereo partly drawn) [Example 22, Trans-2-{4-[(2,3-Dihydro-benzo[1,4]dioxin-6-ylmethyl)-amino]-cyclohexyl}-1-(6-methoxy-quinolin-4-yl)-ethanol oxalate salt] the MIC was ≤ 16 µg/mL. In the case of COc1ccc2nccc(NC(=O)[C@H]3CC[C@H](NCc4cnc5c(c4)NC(=O)CS5)CC3)c2c1 [Example 14, Trans-4-[(2-Oxo-2,3-dihydro-1H-pyrido[2,3-b][1,4]thiazin-7-ylmethyl)-amino]-cyclohexanecarboxylic acid (6-methoxy-quinolin-4-yl)-amide oxalate salt], the MIC is reported as ≤ 16 µg/mL. With COc1ccc2nccc(NC(=O)[C@H]3CC[C@H](NCc4ccc5c(n4)NC(=O)CO5)CC3)c2n1 [Example 31, Trans-4-[(3-Oxo-3,4-dihydro-2H-pyrido[3,2-b][1,4]oxazin-6-ylmethyl)-amino]-cyclohexanecarboxylic acid (6-methoxy-[1,5]naphthyridin-4-yl)-amide oxalate] the MIC was ≤ 4 µg/mL. For COc1ccc2nccc(NC(=O)[C@]3(O)CC[C@@H](NCc4cnc5c(c4)NC(=O)CS5)CC3)c2n1 [Example 303, 1-Hydroxy-t-4-[(2-oxo-2,3-dihydro-1H-pyrido[2,3-b][1,4]thiazin-7-ylmethyl)-amino]-r-cyclohexanecarboxylic Acid (6-methoxy-[1,5]naphthyridin-4-yl)-amide Dihydrochloride], the MIC was ≤ 4 µg/mL. With COc1ccc2nccc(NC(=O)[C@H]3CC[C@H](NCc4cc(N)c5c(c4)NC(=O)CO5)CC3)c2n1 [Example 36, Trans-4-[(8-Amino-3-oxo-3,4-dihydro-2H-benzo[1,4]oxazin-6-ylmethyl)-amino]-cyclohexanecarboxylic acid (6-methoxy)-[1,5]naphthyridin-4-yl)-amide Oxalate] the MIC was ≤ 64 µg/mL. For COc1ccc2nccc(NC(=O)[C@H]3CC[C@H](NCc4ccc5c(c4)NCCO5)CC3)c2n1 [Example 15, Trans-4-[(3,4-Dihydro-2H-benzo[1,4]oxazin-6-ylmethyl)-amino]-cyclohexanecarboxylic acid (6-methoxy-[1,5]naphthyridin-4-yl)-amide oxalate salt], the MIC was ≤ 16 µg/mL. For COc1ccc2nccc(NC(=O)[C@]3(O)CC[C@@H](NCc4ccc5c(c4)NC(=O)CS5)CC3)c2n1 [Example 300, 1-Hydroxy-t-4-[(3-oxo-3,4-dihydro-2H-benzo[1,4]thiazin-6-ylmethyl)-amino]-r-cyclohexanecarboxylic Acid (6-methoxy-[1,5]naphthyridin-4-yl)-amide Dihydrochloride], the MIC was ≤ 4 µg/mL. For COc1ccc2nccc(NC(=O)[C@]3(O)CC[C@@H](NCc4ccc5c(n4)NC(=O)CS5)CC3)c2n1 [Example 301, 1-Hydroxy-t-4-[(3-oxo-3,4-dihydro-2H-pyrido[3,2-b][1,4]thiazin-6-ylmethyl)-amino]-r-cyclohexanecarboxylic Acid (6-methoxy-[1,5]naphthyridin-4-yl)-amide Dihydrochloride], the MIC was ≤ 4 µg/mL. With NCCCOc1ccc2nccc(NC(=O)[C@H]3CC[C@H](NCc4ccc5c(c4)OCCO5)CC3)c2n1 [Example 29, Trans-4-[(2,3-Dihydro-benzo[1,4]dioxin-6-ylmethyl)-amino]-cyclohexanecarboxylic acid [6-(3-amino-propoxy)-[1,5]naphthyridin-4-yl]-amide dioxalate] the MIC was ≤ 16 µg/mL. With COc1ccc2nccc(NC(=O)[C@H]3CC[C@H](NCc4ccc5nsnc5c4)CC3)c2n1 [Example 2, Trans-4-[(Benzo[1,2,5]thiadiazol-5-ylmethyl)-amino]-cyclohexanecarboxylic acid (6-methoxy-[1,5]naphthyridin-4-yl)-amide fumarate salt] the MIC was ≤ 4 µg/mL. In the case of COc1cc(F)c2nccc(NC(=O)[C@]3(O)CC[C@@H](NCc4ccc5c(n4)NC(=O)CS5)CC3)c2c1 [Example 390, 1-Hydroxy-t-4-[(3-oxo-3,4-dihydro-2H-pyrido[3,2-b][1,4]thiazin-6-ylmethyl)-amino-r-cyclohexanecarboxylic acid (8-fluoro-6-methoxy-quinolin-4-yl)-amidedihydrochloride], the MIC is reported as ≤ 4 µg/mL. In the case of COc1ccc2nccc(NC(=O)[C@H]3CC[C@H](NCc4cnc5scnc5c4)CC3)c2n1 [Example 16, Trans-4-[(Thiazolo[5,4-b]-pyridin-6-ylmethyl)-amino]-cyclohexanecarboxylic acid (6-methoxy-[1,5]naphthyridin-4-yl)-amide oxalate salt], the MIC is reported as ≤ 16 µg/mL. For COc1ccc2nccc(C(O)C[C@H]3CC[C@H](NCc4ccc5c(c4)NC(=O)CS5)CC3)c2c1 (stereo partly drawn) [Example 21, Trans-6-({4-[2-Hydroxy-2-(6-methoxy-quinolin-4-yl)-ethyl]-cyclohexylamino}-methyl)-4-H-benzo[1,4]thiazin-3-one oxalate salt], the MIC was ≤ 4 µg/mL.

Source: US7141564B2, “Nitrogen-containing bicyclic heterocycles for use as antibacterials” (priority 2001, dated 2006)
